Measurements from PubChem BioAssay AID1996.
≈ marks a conversion by molar mass, not a printed value.

settings: buffer; pH 7.4; 200.0 µM

**Q.** For `Cc1ccc(CNC(=O)Cc2cn(C)c3ccccc23)cc1`, which solubility kinetic is on record?
**A.** Its solubility kinetic is 2.2 µg/mL (≈ 7.52 µM).

**Q.** Which solubility kinetic does the source give for `Cc1oc(C(N)=O)cc1COc1ccc(C(N)=O)cc1` here?
**A.** The solubility kinetic was 32.9 µg/mL (≈ 120 µM).

**Q.** Which solubility kinetic does the source give for `CN1CCN(C(=O)/C(=C/c2ccco2)NC(=O)c2ccccc2)CC1` here?
**A.** Its solubility kinetic is 40.7 µg/mL (≈ 120 µM).

**Q.** For `Cc1cccc(NC(=O)C(C)SCc2ccccc2)c1` (centres undefined), which solubility kinetic is on record?
**A.** The solubility kinetic was 27.9 µg/mL (≈ 97.8 µM).

**Q.** For `Cc1ccc(OCCNCc2ccccc2)c(C)c1.O=C(O)C(=O)O`, which solubility kinetic is on record?
**A.** The solubility kinetic was 45.8 µg/mL.

**Q.** For `Cc1cccc(-c2noc(CNS(=O)(=O)c3ccccc3)n2)c1`, which solubility kinetic is on record?
**A.** Its solubility kinetic is greater than 49.4 µg/mL.

**Q.** With `CCc1ccccc1NC(=O)Nc1cnccn1` as the compound, how does the solubility kinetic read?
**A.** Its solubility kinetic is 6.1 µg/mL (≈ 25.2 µM).

**Q.** For `COc1ccc(NC(=O)CSc2nc3c(c(-c4cccs4)c2C#N)CN(C)CC3)cc1OC`, which solubility kinetic is on record?
**A.** The solubility kinetic was 19.9 µg/mL (≈ 41.4 µM).

**Q.** Which solubility kinetic does the source give for `O=C(c1ccc(S(=O)(=O)N2CCCC2)cc1)N1CCCCCC1` here?
**A.** The solubility kinetic was greater than 50.5 µg/mL.

**Q.** For `Cc1[nH]c(=S)c(C#N)c(C)c1CCC#N`, which solubility kinetic is on record?
**A.** The solubility kinetic was greater than 32.6 µg/mL.

**Q.** For `CCS(=O)(=O)N1CCN(c2ccnc3cc(Cl)ccc23)CC1`, which solubility kinetic is on record?
**A.** Its solubility kinetic is greater than 51 µg/mL.

**Q.** For `Cc1ccc2c(NC(=O)c3ccco3)cccc2n1`, which solubility kinetic is on record?
**A.** The solubility kinetic was 37.2 µg/mL (≈ 147 µM).

**Q.** For `O=C(COC(=O)/C=C/c1ccc(F)cc1)NCc1cccs1`, which solubility kinetic is on record?
**A.** The solubility kinetic was 8.7 µg/mL (≈ 27.2 µM).

**Q.** With `CC1CCN(CC(=O)Nc2nccs2)CC1` as the compound, how does the solubility kinetic read?
**A.** The solubility kinetic was greater than 35.9 µg/mL.

**Q.** For `Cc1cc(C)c(NC(=O)CNC(=O)c2ccc3ncsc3c2)c(C)c1`, which solubility kinetic is on record?
**A.** The solubility kinetic was 6.7 µg/mL (≈ 19 µM).

**Q.** With `CC(C)S(=O)(=O)c1csc(NC(=O)Nc2ccc(Cl)cc2)c1` as the compound, how does the solubility kinetic read?
**A.** The solubility kinetic was 2.8 µg/mL (≈ 7.8 µM).

**Q.** For `CCOCCCNC(=O)c1c[nH]c2cc(OC)ccc2c1=O`, which solubility kinetic is on record?
**A.** The solubility kinetic was greater than 45.7 µg/mL.

**Q.** Which solubility kinetic does the source give for `Cc1oc(CC(C)C)cc1C(=O)NCCCC(=O)O` here?
**A.** The solubility kinetic was greater than 40.1 µg/mL.

**Q.** Which solubility kinetic does the source give for `O=C(Nc1ccccc1)Nc1ccc2ccccc2n1` here?
**A.** Its solubility kinetic is less than 0.2 µg/mL.

**Q.** With `COc1ccc(NC(=O)/C=C/C(=O)O)c([N+](=O)[O-])c1` as the compound, how does the solubility kinetic read?
**A.** Its solubility kinetic is greater than 39.9 µg/mL.

**Q.** Which solubility kinetic does the source give for `O=C(COC(=O)CC1CC2CCC1C2)Nc1ccccc1Cl` (centres undefined) here?
**A.** Its solubility kinetic is 12.9 µg/mL (≈ 40.1 µM).

**Q.** For `CCOc1ccc(Nc2cc(=O)[nH]c(=O)[nH]2)cc1`, which solubility kinetic is on record?
**A.** Its solubility kinetic is 7.6 µg/mL (≈ 30.7 µM).

**Q.** With `O=S(=O)(Nc1cccc(CCc2ccccn2)c1)c1ccc(Cl)cc1` as the compound, how does the solubility kinetic read?
**A.** The solubility kinetic was 19.1 µg/mL (≈ 51.2 µM).

**Q.** Which solubility kinetic does the source give for `O=S(=O)(NCCCN1CCOCC1)c1ccc(Cl)cc1` here?
**A.** The solubility kinetic was greater than 47.8 µg/mL.

**Q.** Which solubility kinetic does the source give for `Cc1ccc(S(=O)(=O)N2CCOCC2)cc1C(=O)N1CCN(c2ccc(C(F)(F)F)cn2)CC1` here?
**A.** The solubility kinetic was 68.8 µg/mL (≈ 138 µM).

**Q.** Which solubility kinetic does the source give for `CC(=O)Nc1ccc(/C=C/c2noc(-c3ccccc3O)n2)cc1` here?
**A.** Its solubility kinetic is less than 0.2 µg/mL.

**Q.** Which solubility kinetic does the source give for `CC(Cc1ccccc1)NC(=O)c1cc2ccccc2o1` (centres undefined) here?
**A.** The solubility kinetic was 30.5 µg/mL (≈ 109 µM).

**Q.** With `CC(C)(C)c1ccc(C2(C)NC(=O)NC2=O)cc1` (centres undefined) as the compound, how does the solubility kinetic read?
**A.** Its solubility kinetic is 35.2 µg/mL (≈ 143 µM).

**Q.** With `Cc1cc(N/C=C(\C#N)S(=O)(=O)c2ccccc2Cl)nc(C)n1` as the compound, how does the solubility kinetic read?
**A.** The solubility kinetic was 39.5 µg/mL (≈ 113 µM).

**Q.** With `Cc1ccc(C2CC2/C(=N/O)c2ccc(F)cc2)cc1` (centres undefined) as the compound, how does the solubility kinetic read?
**A.** Its solubility kinetic is 3.1 µg/mL (≈ 11.5 µM).

**Q.** With `N#CCC(=O)Nc1ccc(C(=O)Nc2cccc(S(N)(=O)=O)c2)cc1` as the compound, how does the solubility kinetic read?
**A.** The solubility kinetic was 46.2 µg/mL (≈ 129 µM).

**Q.** With `O=C(Cc1ccccc1)c1c[nH]c(C(=O)NCc2ccncc2)c1` as the compound, how does the solubility kinetic read?
**A.** Its solubility kinetic is 6.1 µg/mL (≈ 19.1 µM).

**Q.** With `CCC(Oc1ccc(C)cc1)C(=O)Nc1ccc2c(c1)n(C)c(=O)n2C` (centres undefined) as the compound, how does the solubility kinetic read?
**A.** The solubility kinetic was greater than 53 µg/mL.

**Q.** With `COC(=O)CN1C(=O)NC2(CCCc3ccccc32)C1=O` (centres undefined) as the compound, how does the solubility kinetic read?
**A.** The solubility kinetic was greater than 43.2 µg/mL.

**Q.** With `CCCCCn1c(N)c(C(=O)NCc2cccs2)c2nc3ccccc3nc21` as the compound, how does the solubility kinetic read?
**A.** The solubility kinetic was 0.9 µg/mL (≈ 2.29 µM).

**Q.** For `Cc1sc2nc(COC(=O)c3ccc(O)cc3)[nH]c(=O)c2c1C`, which solubility kinetic is on record?
**A.** Its solubility kinetic is 8 µg/mL (≈ 24.2 µM).

**Q.** For `COc1ccccc1C(=O)NCCN1CCN(c2ccccc2)CC1.Cl`, which solubility kinetic is on record?
**A.** Its solubility kinetic is 52.7 µg/mL.

**Q.** For `CCOC(=O)c1c(C)oc2c1c(C=NC1CCS(=O)(=O)C1)c(O)c1ccccc12` (centres undefined), which solubility kinetic is on record?
**A.** The solubility kinetic was less than 0.9 µg/mL.

**Q.** Which solubility kinetic does the source give for `COc1cccc(CN2CCSCC2)c1OC` here?
**A.** The solubility kinetic was 24.2 µg/mL (≈ 95.5 µM).

**Q.** For `CCN(Cc1ccccc1)C(=O)c1ccc(Cl)cc1[N+](=O)[O-]`, which solubility kinetic is on record?
**A.** Its solubility kinetic is 44.5 µg/mL (≈ 140 µM).

**Q.** With `Cc1ccsc1CNS(=O)(=O)c1ccc(F)cc1` as the compound, how does the solubility kinetic read?
**A.** The solubility kinetic was 30 µg/mL (≈ 105 µM).

**Q.** Which solubility kinetic does the source give for `O=C(O)CN1C(=O)C(=O)N(Cc2ccccc2F)C1=O` here?
**A.** Its solubility kinetic is greater than 42 µg/mL.

**Q.** Which solubility kinetic does the source give for `Cc1cc2c(cc1C)C(c1ccsc1)CC(=O)N2` (centres undefined) here?
**A.** The solubility kinetic was 5.1 µg/mL (≈ 19.8 µM).

**Q.** With `COc1ccc(N2C(=O)NC(NC(=O)C(C)(C)C)(C(F)(F)F)C2=O)cc1` (centres undefined) as the compound, how does the solubility kinetic read?
**A.** The solubility kinetic was greater than 56 µg/mL.

**Q.** With `O=C(NCC1CCCN(C2Cc3ccccc3C2)C1)c1cccs1` (centres undefined) as the compound, how does the solubility kinetic read?
**A.** The solubility kinetic was 40.1 µg/mL (≈ 118 µM).

**Q.** For `Cc1cc(C)c(C)c(OCC(=O)O/N=C(\N)c2cccnc2)c1`, which solubility kinetic is on record?
**A.** Its solubility kinetic is 2.5 µg/mL (≈ 7.98 µM).

**Q.** Which solubility kinetic does the source give for `C=CCN(c1ccccc1OC)S(=O)(=O)c1cccc(C(=O)OC2CCOC2=O)c1` (centres undefined) here?
**A.** Its solubility kinetic is 56.7 µg/mL (≈ 131 µM).

**Q.** For `CN(C)/C=C(\C#N)S(=O)(=O)c1ccc(Cl)cc1`, which solubility kinetic is on record?
**A.** Its solubility kinetic is 37.7 µg/mL (≈ 139 µM).

**Q.** Which solubility kinetic does the source give for `CC1CCCN(Cc2csc(N)n2)C1` (centres undefined) here?
**A.** Its solubility kinetic is greater than 31.7 µg/mL.

**Q.** For `CNC(=O)c1cc(C(=O)c2ccc(Cl)cc2)c[nH]1`, which solubility kinetic is on record?
**A.** The solubility kinetic was 10.5 µg/mL (≈ 40 µM).

**Q.** With `CCCN1C2CCCC1CC(NC(=S)NCCCOCC)C2` (centres undefined) as the compound, how does the solubility kinetic read?
**A.** Its solubility kinetic is greater than 49.1 µg/mL.

**Q.** For `O=C(c1ccc(=O)[nH]c1)N1CCCc2ccccc21`, which solubility kinetic is on record?
**A.** Its solubility kinetic is greater than 38.1 µg/mL.

**Q.** For `Nc1nc(C2CCOCC2)cs1`, which solubility kinetic is on record?
**A.** The solubility kinetic was greater than 27.6 µg/mL.

**Q.** For `CN(C)C(=O)Oc1ccc2c(c1)O/C(=C\c1ccccc1)C2=O`, which solubility kinetic is on record?
**A.** Its solubility kinetic is 0.8 µg/mL (≈ 2.59 µM).

**Q.** With `CCn1c(C)nc2cc(C(=O)OC)ccc21` as the compound, how does the solubility kinetic read?
**A.** The solubility kinetic was greater than 32.7 µg/mL.

**Q.** For `C=CCN1C(=O)c2ccccc2NC1c1cc(Br)cs1` (centres undefined), which solubility kinetic is on record?
**A.** The solubility kinetic was 41.1 µg/mL (≈ 118 µM).

**Q.** Which solubility kinetic does the source give for `O=C(N/C(=C\c1ccco1)C(=O)N1CCCC(CO)C1)c1ccccc1` (centres undefined) here?
**A.** Its solubility kinetic is greater than 53.2 µg/mL.

**Q.** Which solubility kinetic does the source give for `Cc1cc(NC(=O)CC(C)C)c(=O)n(Cc2cccc(F)c2)c1` here?
**A.** The solubility kinetic was 43.7 µg/mL (≈ 138 µM).

**Q.** For `Cc1cc2ccccc2cc1CN1CCCCC1`, which solubility kinetic is on record?
**A.** The solubility kinetic was 9.6 µg/mL (≈ 40.1 µM).
